Test results published in PubChem BioAssay AID651581 (Sanford-Burnham Center for Chemical Genomics, 2012).
Calls of active or inactive are those of the source. The rule behind the calls is not given here.

What was measured:
[1] = target: Endothelial PAS domain-containing protein 1 (Homo sapiens) (UniProt Q99814); assay: potency against HIF reporters across cell lines – luminescence, panel, selectivity assay for HIF-2a inhibitor project, dose response (AID 651581); details: human cell HIF reporter
[2] = target: Hypoxia-inducible factor 1-alpha (Homo sapiens) (UniProt Q16665); assay: as above; details: human cell HIF reporter, HIF-1a
Chain of Hypoxia-inducible factor 1-alpha (Homo sapiens) (Q16665 whole entry, looked up): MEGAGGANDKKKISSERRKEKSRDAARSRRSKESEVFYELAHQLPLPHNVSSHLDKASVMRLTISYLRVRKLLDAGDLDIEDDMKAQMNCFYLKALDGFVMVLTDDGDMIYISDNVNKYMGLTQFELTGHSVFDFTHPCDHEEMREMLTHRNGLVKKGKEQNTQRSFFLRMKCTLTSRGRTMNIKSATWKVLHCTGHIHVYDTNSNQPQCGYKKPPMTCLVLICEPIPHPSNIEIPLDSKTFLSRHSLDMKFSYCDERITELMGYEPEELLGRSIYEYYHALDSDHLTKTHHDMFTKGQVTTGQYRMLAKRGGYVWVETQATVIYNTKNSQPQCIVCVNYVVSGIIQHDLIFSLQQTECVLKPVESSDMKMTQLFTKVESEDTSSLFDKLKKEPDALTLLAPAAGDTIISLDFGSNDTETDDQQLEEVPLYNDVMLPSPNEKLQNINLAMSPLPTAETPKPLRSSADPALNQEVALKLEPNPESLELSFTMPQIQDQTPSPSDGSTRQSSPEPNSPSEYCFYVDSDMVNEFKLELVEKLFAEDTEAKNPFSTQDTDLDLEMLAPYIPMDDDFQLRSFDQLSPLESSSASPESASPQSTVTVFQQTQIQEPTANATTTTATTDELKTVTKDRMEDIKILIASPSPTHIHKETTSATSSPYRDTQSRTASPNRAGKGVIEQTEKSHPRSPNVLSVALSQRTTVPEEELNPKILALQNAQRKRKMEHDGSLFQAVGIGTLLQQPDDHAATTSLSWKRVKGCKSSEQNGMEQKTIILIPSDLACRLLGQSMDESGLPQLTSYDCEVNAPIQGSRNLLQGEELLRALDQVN

## O=C(Nc1ccc(F)cc1)c1nc(S(=O)(=O)Cc2ccccc2)ncc1Cl
[1]; HIF-2a PANC, mean of runs
  IC50: inactive
[1]; HIF-2a PANC, run 1
  IC50: 26.2 µM
[1]; HIF-2a PANC, run 2
  IC50: 22 µM
[1]; HIF-2a, mean of runs
  IC50: 7.59 µM
[1]; HIF-2a, run 1
  IC50: 7.71 µM
[1]; HIF-2a, run 2
  IC50: 7.47 µM
[2]; mean of runs
  IC50: inactive
[2]; run 1
  IC50: 14.6 µM
[2]; run 2
  IC50: 16.7 µM

## CCc1ccc(S(=O)(=O)ON2C(=O)c3ccccc3C2=O)cc1
[1]; HIF-2a PANC, run 1
  IC50: 53.4 µM
[1]; HIF-2a PANC, run 2
  IC50: > 99 µM
[1]; HIF-2a, mean of runs
  IC50: inactive
[1]; HIF-2a, run 1
  IC50: 10.6 µM
[1]; HIF-2a, run 2
  IC50: 9.59 µM
[2]; run 1
  IC50: 25.1 µM
[2]; run 2
  IC50: > 99 µM

## CC(C)(C)c1ccc(/C=N/Nc2ccc(C(=O)O)cc2)cc1
[1]; HIF-2a PANC, mean of runs
  IC50: < 0.3 µM
[1]; HIF-2a PANC, run 1
  IC50: < 1 µM
[1]; HIF-2a PANC, run 2
  IC50: < 0.3 µM
[1]; HIF-2a, run 1
  IC50: > 99 µM
[1]; HIF-2a, run 2
  IC50: < 0.19 µM
[2]; mean of runs
  IC50: inactive
[2]; run 1
  IC50: 52.5 µM
[2]; run 2
  IC50: 40.5 µM

## CC(=O)N/N=C\c1cccc(OC/C=C/c2ccccc2)c1
[1]; HIF-2a PANC, mean of runs
  IC50: > 99 µM (inactive)
[1]; HIF-2a PANC, run 1
  IC50: > 99 µM
[1]; HIF-2a PANC, run 2
  IC50: > 99 µM
[1]; HIF-2a, mean of runs
  IC50: < 10 µM
[1]; HIF-2a, run 1
  IC50: < 10 µM
[1]; HIF-2a, run 2
  IC50: < 30 µM
[2]; run 1
  IC50: > 99 µM
[2]; run 2
  IC50: > 99 µM

## COC(=O)c1cccc(-c2noc(-c3ccccc3F)n2)c1
[1]; HIF-2a PANC, mean of runs
  IC50: 9.77 µM
[1]; HIF-2a PANC, run 1
  IC50: 9.59 µM
[1]; HIF-2a PANC, run 2
  IC50: 9.94 µM
[1]; HIF-2a, mean of runs
  IC50: < 10 µM
[1]; HIF-2a, run 1
  IC50: < 10 µM
[1]; HIF-2a, run 2
  IC50: < 10 µM
[2]; run 1
  IC50: > 99 µM
[2]; run 2
  IC50: > 99 µM

## Cc1ccc(S(=O)(=O)ON2C(=O)c3ccccc3C2=O)c(C)c1
[1]; HIF-2a PANC, run 1
  IC50: > 99 µM
[1]; HIF-2a PANC, run 2
  IC50: 38.7 µM
[1]; HIF-2a, mean of runs
  IC50: 5.62 µM
[1]; HIF-2a, run 1
  IC50: 5.63 µM
[1]; HIF-2a, run 2
  IC50: 5.6 µM
[2]; run 1
  IC50: > 99 µM
[2]; run 2
  IC50: > 99 µM

## CCOC(=O)NC(=O)COC(=O)CCCSc1nc2ccccc2s1
[1]; HIF-2a PANC, mean of runs
  IC50: 11.3 µM
[1]; HIF-2a PANC, run 1
  IC50: 12 µM
[1]; HIF-2a PANC, run 2
  IC50: 10.7 µM
[1]; HIF-2a, mean of runs
  IC50: 9.56 µM
[1]; HIF-2a, run 1
  IC50: 8.83 µM
[1]; HIF-2a, run 2
  IC50: 10.3 µM
[2]; mean of runs
  IC50: inactive
[2]; run 1
  IC50: 24.2 µM
[2]; run 2
  IC50: 13.4 µM

## Cc1nc(SCc2ccc(C(=O)O)cc2)nc2c1CCCC2
[1]; HIF-2a PANC, mean of runs
  IC50: inactive
[1]; HIF-2a PANC, run 1
  IC50: 20.8 µM
[1]; HIF-2a PANC, run 2
  IC50: 23.6 µM
[1]; HIF-2a, mean of runs
  IC50: 4.53 µM
[1]; HIF-2a, run 1
  IC50: 4.31 µM
[1]; HIF-2a, run 2
  IC50: 4.75 µM
[2]; mean of runs
  IC50: inactive
[2]; run 1
  IC50: 12.3 µM
[2]; run 2
  IC50: 7.67 µM

## CC(=O)Nc1ccc(OC(=O)N2CCCCC2)cc1
[1]; HIF-2a PANC, mean of runs
  IC50: 2.8 µM
[1]; HIF-2a PANC, run 1
  IC50: 1.96 µM
[1]; HIF-2a PANC, run 2
  IC50: 3.65 µM
[1]; HIF-2a, mean of runs
  IC50: 2.33 µM
[1]; HIF-2a, run 1
  IC50: 2.32 µM
[1]; HIF-2a, run 2
  IC50: 2.34 µM
[2]; mean of runs
  IC50: 11.4 µM
[2]; run 1
  IC50: 11.5 µM
[2]; run 2
  IC50: 11.2 µM

## CCOC(=O)c1sc(NC(=O)c2cc3c(s2)CCC(C)C3)nc1C (stereo not given)
[1]; HIF-2a PANC, run 1
  IC50: < 1 µM
[1]; HIF-2a PANC, run 2
  IC50: > 99 µM
[1]; HIF-2a, run 1
  IC50: 0.2 µM
[1]; HIF-2a, run 2
  IC50: > 99 µM
[2]; run 1
  IC50: 20.5 µM
[2]; run 2
  IC50: > 99 µM

## c1c2c(cc3sc(N4CCOCC4)nc13)OCCO2
[1]; HIF-2a PANC, mean of runs
  IC50: 17.2 µM
[1]; HIF-2a PANC, run 1
  IC50: 20 µM
[1]; HIF-2a PANC, run 2
  IC50: 14.4 µM
[1]; HIF-2a, mean of runs
  IC50: < 30 µM (inactive)
[1]; HIF-2a, run 1
  IC50: < 30 µM
[1]; HIF-2a, run 2
  IC50: < 30 µM
[2]; mean of runs
  IC50: inactive
[2]; run 1
  IC50: 11.3 µM
[2]; run 2
  IC50: 18 µM

## Cc1nc2cc(-c3cccc(F)c3)nn2c(C)c1CCC(=O)NC(C)c1ccc2c(c1)OCCO2 (stereo not given)
[1]; HIF-2a PANC, mean of runs
  IC50: inactive
[1]; HIF-2a PANC, run 1
  IC50: 41.1 µM
[1]; HIF-2a PANC, run 2
  IC50: 11.9 µM
[1]; HIF-2a, mean of runs
  IC50: 4.38 µM
[1]; HIF-2a, run 1
  IC50: 4.45 µM
[1]; HIF-2a, run 2
  IC50: 4.31 µM
[2]; mean of runs
  IC50: 18.6 µM
[2]; run 1
  IC50: 19.2 µM
[2]; run 2
  IC50: 18 µM

## Nc1ccc(-c2cc3ccccc3c(=O)o2)cc1
[1]; HIF-2a PANC, mean of runs
  IC50: 0.7 µM
[1]; HIF-2a PANC, run 1
  IC50: 0.782 µM
[1]; HIF-2a PANC, run 2
  IC50: 0.618 µM
[1]; HIF-2a, mean of runs
  IC50: < 1 µM
[1]; HIF-2a, run 1
  IC50: < 1 µM
[1]; HIF-2a, run 2
  IC50: < 1 µM
[2]; run 1
  IC50: 0.423 µM
[2]; run 2
  IC50: > 99 µM

## CCN(CC)S(=O)(=O)c1ccc(NC(=O)c2cccnc2Cl)c(NC(=O)c2cccnc2Cl)c1
[1]; HIF-2a PANC, mean of runs
  IC50: 9.99 µM
[1]; HIF-2a PANC, run 1
  IC50: 12.9 µM
[1]; HIF-2a PANC, run 2
  IC50: 7.07 µM
[1]; HIF-2a, mean of runs
  IC50: 10 µM
[1]; HIF-2a, run 1
  IC50: 9.42 µM
[1]; HIF-2a, run 2
  IC50: 10.6 µM
[2]; mean of runs
  IC50: inactive
[2]; run 1
  IC50: 8.13 µM
[2]; run 2
  IC50: 16.9 µM

## CCOC(=O)C1CCCN(C(=O)COc2ccc(C(C)(C)C)cc2)CC1 (stereo not given)
[1]; HIF-2a PANC, mean of runs
  IC50: 13.5 µM
[1]; HIF-2a PANC, run 1
  IC50: 16.5 µM
[1]; HIF-2a PANC, run 2
  IC50: 10.4 µM
[1]; HIF-2a, mean of runs
  IC50: 8.24 µM
[1]; HIF-2a, run 1
  IC50: 8.72 µM
[1]; HIF-2a, run 2
  IC50: 7.77 µM
[2]; run 1
  IC50: > 99 µM
[2]; run 2
  IC50: > 99 µM

## Nc1ccc(-c2ncc(-c3ccccc3)o2)cc1
[1]; HIF-2a PANC, mean of runs
  IC50: 0.247 µM
[1]; HIF-2a PANC, run 1
  IC50: 0.202 µM
[1]; HIF-2a PANC, run 2
  IC50: 0.292 µM
[1]; HIF-2a, mean of runs
  IC50: < 0.3 µM
[1]; HIF-2a, run 1
  IC50: < 0.3 µM
[1]; HIF-2a, run 2
  IC50: < 1 µM
[2]; mean of runs
  IC50: 26.7 µM
[2]; run 1
  IC50: 52.5 µM
[2]; run 2
  IC50: 0.851 µM

## CCS(=O)(=O)c1ncc(Cl)c(C(=O)Nc2ccc(C)cc2)n1
[1]; HIF-2a PANC, mean of runs
  IC50: 30.5 µM
[1]; HIF-2a PANC, run 1
  IC50: 30.4 µM
[1]; HIF-2a PANC, run 2
  IC50: 30.7 µM
[1]; HIF-2a, mean of runs
  IC50: inactive
[1]; HIF-2a, run 1
  IC50: 10.8 µM
[1]; HIF-2a, run 2
  IC50: 9.79 µM
[2]; mean of runs
  IC50: inactive
[2]; run 1
  IC50: 23.9 µM
[2]; run 2
  IC50: 20 µM

## N#Cc1ccccc1COc1ccc(/C=C/C(=O)O)cc1
[1]; HIF-2a PANC, mean of runs
  IC50: 0.92 µM
[1]; HIF-2a PANC, run 1
  IC50: 1.53 µM
[1]; HIF-2a PANC, run 2
  IC50: 0.311 µM
[1]; HIF-2a, mean of runs
  IC50: 0.391 µM
[1]; HIF-2a, run 1
  IC50: 0.37 µM
[1]; HIF-2a, run 2
  IC50: 0.412 µM
[2]; mean of runs
  IC50: 1.34 µM
[2]; run 1
  IC50: 1.56 µM
[2]; run 2
  IC50: 1.12 µM
